Measured values as given in patent US6906205B2, “Spiro and dispiro 1,2,4-trioxolane antimalarials” (Medicines for Malaria Venture MMV, priority 2002, dated 2005).
≈ marks a conversion by molar mass, not a printed value.

Tests used:
[1] = test system: P. falciparum K1 strain (Thailand resistant to chloroquine); test: semiautomated microdilution assay, [3H]-hypoxanthine incorporation, K1 strain; assay type: cell-based, Plasmodium falciparum; conditions: K1 strain, 72 h incubation
How it was run: (§1)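 Intraerythrocytic stages from unsynchronised stock cultures are exposed to test compounds in a semiautomated microdilution format, and fifty percent inhibitory concentrations are then fitted by logit regression.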

[2] = test system: P. falciparum NF54 strain (sensitive to standard antimalarials); test: semiautomated microdilution assay, [3H]-hypoxanthine incorporation, NF54 strain; assay type: cell-based, Plasmodium falciparum; conditions: NF54 strain, 72 h incubation
How it was run: as §1

[3] = test system: parasitemia (malaria infection); test: onset of action and recrudescence experiments; assay type: in vivo; conditions: single 100 mg/kg po (SSV) on day +3 post-infection; recrudescence = >5% parasitemia; followed up to 60 days; (n/5) = animals
Protocol: The onset of drug action was determined after a single fixed dose of 100 mg/kg (SSV vehicle) po to groups of five animals on day +3 post-infection (day 0).

[4] = test system: ANKA strain of Plasmodium berghei; test: single dose ED50/ED90/ED99 determinations in infected mice; assay type: in vivo; conditions: single dose po in SSV, mice, percent reduction in parasitemia on day three post-infection
How it was run: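 Mice (Moro SPF or NMRI, n=3 per group) infected with P. berghei ANKA received a single dose on day 1 post-infection, vehicle 0.5% CMC/0.5% benzyl alcohol/0.4% Tween 80/0.9% NaCl in water. Read-out is percent reduction in parasitemia on day 3; ED values by nonlinear fitting.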

[5] = test system: ANKA strain of P. berghei; test: single dose STI in vivo screen in infected mice; parameters: species or system Plasmodium berghei
How it was run: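 Groups of 3-5 Moro SPF or NMRI mice infected with the ANKA strain of P. berghei received a single dose of trioxolane on day one post-infection. The compound was given in 3% ethanol and 7% Tween 80 or in SSV (0.5% w/v CMC, 0.5% v/v benzyl alcohol, 0.4% v/v Tween 80, 0.9% w/v sodium chloride in water). Antimalarial activity was scored as percent reduction in parasitemia on day three and as survival time versus untreated controls. Survival to day 30 counted as cure.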

[6] = test system: Schistosoma mansoni 21-day-old schistosomules; test: effect on 21-day-old schistosomules in mice; assay type: in vivo; conditions: single 200 mg/kg per os, female mice
Protocol: All groups were killed 4 weeks after treatment and the liver and intestine were removed and separated. The liver and intestine were compressed and alive male and female worms could be seen and counted. The effect of the compounds was evaluated by mean total and female worm burden.

[7] = test system: Schistosoma mansoni adult schistosomes (49-day-old); test: effect on adult schistosomes (49-day-old) in mice; assay type: in vivo; conditions: single 400 mg/kg per os
Protocol: Mice were infected with 100 Schistosoma mansoni cercariae […]. Each group was treated per os with OZ compounds at single doses of 200, 400, and 600 mg/kg. […] All groups were killed 4 weeks after treatment and the liver and intestine were removed and separated. The liver and intestine were compressed and alive male and female worms could be seen and counted.

dosing in rats = assay type: in vivo; conditions: rat
Text: (§2) Artesunate is listed as a reference compound.

dosing in dogs = assay type: in vivo; conditions: dog
Text: as §2

[8] = chemical properties of OZ277 salts; conditions: salt of OZ277

Compound: O=C(C[C@H]1CC[C@]2(CC1)OOC1(O2)C2CC3CC(C2)CC1C3)NO (stereo partly drawn) [OZ175]
- IC50 (ng/ml) K1 [1]: 1.4 ng/mL (≈ 4.15 nM)
- IC50 (ng/ml) NF54 [2]: 2.0 ng/mL (≈ 5.93 nM)
- Time of Recrudescence [3]: 13.0 days
- ED50 [4]: 3.5 mg/kg
- ED90 [4]: 6.2 mg/kg
- ED99 [4]: 9.9 mg/kg

Compound: NC(=O)CNC[C@H]1CC[C@]2(CC1)OOC1(O2)C2CC3CC(C2)CC1C3 (stereo partly drawn) [OZ256]
- IC50 (ng/ml) K1 [1]: 0.3 ng/mL (≈ 0.856 nM)
- IC50 (ng/ml) NF54 [2]: 0.2 ng/mL (≈ 0.571 nM)
- Activity (%) po ([5]; percent reduction in parasitemia day 3 post-infection, single 10 mg/kg po in 3% ethanol and 7% Tween 80, mice): 99.70%
- Activity (%) sc ([5]; percent reduction in parasitemia day 3 post-infection, single 10 mg/kg sc in 3% ethanol and 7% Tween 80, mice): 99.95%
- Activity (%) SSVpo ([5]; percent reduction in parasitemia day 3 post-infection, single po dose in standard suspending vehicle (SSV), mice): 99.67%
- Survival (days) po ([5]; single 10 mg/kg po in 3% ethanol and 7% Tween 80, untreated control 5.6 ± 0.3): 8.7 days
- Survival (days) sc ([5]; single 10 mg/kg sc in 3% ethanol and 7% Tween 80, untreated control 5.6 ± 0.3): 9.7 days
- Survival (days) SSVpo ([5]; single po dose in SSV, untreated control 5.6 ± 0.3): 8.7 days
- % reduction of schistosomule growth at day 21 after per os application of 200 mg/kg, FWR (%) [6]: 86%
- % reduction of schistosomule growth at day 21 after per os application of 200 mg/kg, TWR (%) [6]: 85%
- % reduction of adult worms growth at day 49 after per os application of 400 mg/kg, TWR (%) [7]: 10%
- adult worms at day 49, per os 400 mg/kg, DEAD WORM (%) [7]: 19%
- IV t1/2 (10 mg/kg) (dosing in rats; IV 10 mg/kg): 1.57 h
- Oral Bioavailability 10 mg/kg (dosing in rats; oral 10 mg/kg): 18.6%
- Oral Bioavailability 25 mg/kg (dosing in rats; oral 25 mg/kg): 51.9%
- Oral t1/2 (25 mg/kg) (dosing in rats; oral 25 mg/kg): 1.22 h
- IV t1/2 (10 mg/kg) (dosing in dogs; IV 10 mg/kg): 1.42 h
- Oral t1/2 (10 mg/kg) (dosing in dogs; oral 10 mg/kg): 1.38 h
- Oral Bioavailability 10 mg/kg (dosing in dogs; oral 10 mg/kg, OZ 279, OZ 256, OZ 209 values flagged (V)): 42.0%
- Oral Bioavailability 25 mg/kg (dosing in dogs; oral 25 mg/kg, OZ 279, OZ 256, OZ 209 values flagged (V)): 38.3%

Compound: CC(C)(N)CNC(=O)CC1CCC2(CC1)OOC1(O2)C2CC3CC(C2)CC1C3.O=C(O)CCC(=O)O (stereo not drawn) [Succinate]
- Chemical Stability [8]: Stable
- Crystallinity [8]: Crystalline
- Particle size (90% of particles less than) [8]: ˜150 μm
- Physical stability [8]: Stable
- Stability in analytical solution (up to 24 hrs) [8]: Stable

Compound: CC(C)(N)CNC(=O)CC1CCC2(CC1)OOC1(O2)C2CC3CC(C2)CC1C3.Cc1ccc(S(=O)(=O)O)cc1 (stereo not drawn) [Tosylate]
- Chemical Stability [8]: Stable
- Crystallinity [8]: Crystalline
- Particle size (90% of particles less than) [8]: ˜50 μm
- Physical stability [8]: Stable
- Stability in analytical solution (up to 24 hrs) [8]: Stable
